These results are taken from publication PMC11537224 (ACS Infectious Diseases, 2024).

Where two headings read alike, the source gives them in different places. A value given as a limit tells only on which side of the number the result lay.

What is called EC50 is the concentration that produces a half-maximal response. A word on the Ki: it is the dissociation constant of the complex between target and ligand, obtained from inhibition or displacement. The low end stands for a stronger hold on the target, the high end for a looser hold on the target.

Assay [1] concerns T. brucei bloodstream forms. Briefly: Activity toward T. brucei bloodstream forms. Type of assay: cell-based, T. brucei brucei Lister 427. Conditions: for EC50: Trypanosoma brucei, 72 h.
In assay [2] the target is T1, hDHFR (Homo sapiens, UniProt P00374).
T1 sequence (P00374 1-187): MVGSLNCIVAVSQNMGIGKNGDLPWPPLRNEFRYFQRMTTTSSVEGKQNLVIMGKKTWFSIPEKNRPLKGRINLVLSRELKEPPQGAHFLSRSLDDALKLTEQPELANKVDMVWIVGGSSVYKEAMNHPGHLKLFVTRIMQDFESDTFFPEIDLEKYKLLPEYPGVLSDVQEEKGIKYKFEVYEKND
Briefly: biochemical.

The target in assay [3] is TbDHFR (Trypanosoma brucei brucei, UniProt Q27783). The assay is described as follows: biochemical.
For assay [4], the target named is hTS (Homo sapiens, UniProt P04818). Briefly: hTS inhibition assay. Type of assay: biochemical.
Assay [5] concerns the target T2, TbPTR1 (Trypanosoma brucei brucei, UniProt O76290).
T2 sequence (O76290 1-268): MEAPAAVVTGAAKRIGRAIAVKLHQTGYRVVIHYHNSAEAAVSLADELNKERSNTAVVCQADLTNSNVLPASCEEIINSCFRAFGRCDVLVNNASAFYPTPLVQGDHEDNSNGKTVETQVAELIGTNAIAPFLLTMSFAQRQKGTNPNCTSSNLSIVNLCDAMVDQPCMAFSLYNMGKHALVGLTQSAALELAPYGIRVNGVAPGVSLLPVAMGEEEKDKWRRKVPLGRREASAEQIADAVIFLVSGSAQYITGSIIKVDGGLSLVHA
The assay is described as follows: TbPTR1 inhibition assay.

Assay [6] concerns the target TbTS (Trypanosoma brucei brucei, UniProt Q27783). The assay is described as follows: TbDHFR-TS inhibition assay versus the TS domain. Type of assay: biochemical.
The test system of assay [7] is L. infantum promastigotes. The assay is described as follows: L. infantum promastigotes viability assay. As to conditions: Leishmania infantum, 72 h, read-out: L. infantum EC50 (μM). Type of assay: cell-based, L. infantum MHOM/TN/80/IPT1.
Assay [8] relates to T. brucei. Conditions: read-out: T. brucei EC50; cited from earlier work.
Assay [9] concerns the target LmDHFR (Leishmania major, UniProt P07382). The assay is described as follows: LmDHFR inhibition assay. Type of assay: biochemical, L. major.
Assay [10] concerns the target TcDHFR (Trypanosoma cruzi, UniProt Q27793). Briefly: TcDHFR inhibition assay. Type of assay: biochemical, T. cruzi.
The test system of assay [11] is T. brucei. Conditions: read-out: growth of parasites EC50; mean value from four diverse culture media; cited from earlier work.
The mark [12] stands for this setting: read-out: T. brucei EC50 (μM) folate deficiency.

Sequence of hTS (P04818 whole entry): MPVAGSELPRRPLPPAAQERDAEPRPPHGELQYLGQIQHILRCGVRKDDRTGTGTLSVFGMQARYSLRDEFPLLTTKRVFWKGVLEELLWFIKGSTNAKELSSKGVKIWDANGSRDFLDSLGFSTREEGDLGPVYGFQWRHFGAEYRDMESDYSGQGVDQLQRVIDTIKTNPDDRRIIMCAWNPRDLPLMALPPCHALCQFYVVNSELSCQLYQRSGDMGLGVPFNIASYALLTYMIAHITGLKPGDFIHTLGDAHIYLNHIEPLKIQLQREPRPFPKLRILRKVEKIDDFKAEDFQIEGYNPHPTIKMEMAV
Sequence of TbDHFR (Q27783 whole entry): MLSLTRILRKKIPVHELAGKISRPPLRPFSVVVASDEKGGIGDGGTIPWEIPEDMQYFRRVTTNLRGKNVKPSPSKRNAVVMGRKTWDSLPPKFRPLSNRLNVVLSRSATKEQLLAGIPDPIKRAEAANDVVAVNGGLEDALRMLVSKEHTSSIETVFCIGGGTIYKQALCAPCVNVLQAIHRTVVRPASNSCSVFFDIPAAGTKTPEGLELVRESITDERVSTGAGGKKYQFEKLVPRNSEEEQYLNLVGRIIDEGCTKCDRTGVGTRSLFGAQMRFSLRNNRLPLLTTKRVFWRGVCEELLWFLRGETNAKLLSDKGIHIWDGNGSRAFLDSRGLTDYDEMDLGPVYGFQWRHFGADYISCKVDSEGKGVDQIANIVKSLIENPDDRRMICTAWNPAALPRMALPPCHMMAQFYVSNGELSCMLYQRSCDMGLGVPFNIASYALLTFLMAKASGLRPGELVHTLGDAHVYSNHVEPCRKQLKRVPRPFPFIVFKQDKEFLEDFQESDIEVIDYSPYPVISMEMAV
Sequence of TbTS (Q27783 whole entry, the tested form may be a part): as the sequence (Q27783 whole entry) above
Sequence of TcDHFR (Q27793 whole entry): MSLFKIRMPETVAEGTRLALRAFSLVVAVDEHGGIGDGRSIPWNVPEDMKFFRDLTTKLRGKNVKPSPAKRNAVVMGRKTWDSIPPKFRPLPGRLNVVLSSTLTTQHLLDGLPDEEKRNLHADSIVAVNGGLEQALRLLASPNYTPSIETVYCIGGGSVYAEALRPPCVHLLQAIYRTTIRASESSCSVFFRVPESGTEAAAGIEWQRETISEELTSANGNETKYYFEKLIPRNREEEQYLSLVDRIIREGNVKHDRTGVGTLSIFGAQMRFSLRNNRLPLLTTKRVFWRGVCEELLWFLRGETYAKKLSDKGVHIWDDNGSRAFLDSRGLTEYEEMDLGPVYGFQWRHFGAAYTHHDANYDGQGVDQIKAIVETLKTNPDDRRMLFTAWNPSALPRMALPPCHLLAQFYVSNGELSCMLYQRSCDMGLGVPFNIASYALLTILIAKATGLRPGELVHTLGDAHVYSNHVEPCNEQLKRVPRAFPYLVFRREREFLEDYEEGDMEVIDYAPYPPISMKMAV
Sequence of LmDHFR (P07382 whole entry): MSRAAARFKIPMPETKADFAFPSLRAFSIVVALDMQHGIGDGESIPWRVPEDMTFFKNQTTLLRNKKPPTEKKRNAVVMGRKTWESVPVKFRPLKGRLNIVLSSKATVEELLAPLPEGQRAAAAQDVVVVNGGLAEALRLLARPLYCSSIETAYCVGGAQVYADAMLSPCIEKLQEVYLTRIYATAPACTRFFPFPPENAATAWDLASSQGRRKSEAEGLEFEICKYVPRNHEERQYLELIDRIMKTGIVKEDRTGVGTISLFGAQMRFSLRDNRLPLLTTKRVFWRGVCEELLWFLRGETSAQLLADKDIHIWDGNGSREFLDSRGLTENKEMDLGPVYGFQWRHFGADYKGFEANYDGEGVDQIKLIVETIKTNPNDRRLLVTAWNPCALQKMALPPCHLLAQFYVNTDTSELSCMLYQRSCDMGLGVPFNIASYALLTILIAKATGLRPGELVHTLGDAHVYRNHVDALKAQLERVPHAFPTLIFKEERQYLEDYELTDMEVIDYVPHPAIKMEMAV

As for `N=C(N)c1ccc(OCCCCCOc2ccc(C(=N)N)cc2)cc1` [PENT, pentamidine, reference compound], in assay [1] (read-out: T. brucei EC50 (μM)), the EC50 is 0.0041 µM.

Consider `N=C(N)Nc1nc2ccccc2[nH]1` [2a, 2-Guanidinobenzimidazole], for which the EC50 in [1] (read-out: T. brucei EC50 (μM)), in [1] (setting [12]) and in assay [7] was over 20 µM throughout. Besides, the inhibitory constant (Ki) in assay [2] is 2.21 µM; in assay [3] it was 0.029 µM; in assay [4] it was over 500 µM; in [5], 13.3 µM; in assay [6], 23.6 µM.

For `N=C(N)Nc1nc2cc(Cl)cc(Cl)c2[nH]1` [2d, 4,6-Dichloro-2-guanidinobenzimidazole], the results for the concentration for a half-maximal effect (EC50) in assay [1] (read-out: T. brucei EC50 (μM)), in assay [1] (setting [12]) and in assay [7] were 2.91 µM, 5.97 µM and 6.62 µM, respectively. Also, the Ki was 4.36 µM in assay [2]; 0.113 µM in assay [3]; over 500 µM in [4]; 4.94 µM in assay [5]; 20.3 µM in [6].

For the compound `CCCCCCCCCCCCCCCCOP(=O)([O-])OCC[N+](C)(C)C` [MLF, miltefosine, reference compound], the EC50 in assay [7] worked out at 10.9 µM.

In the case of `CCc1nc(N)nc(N)c1-c1ccc(Cl)cc1` [Pyr, pyrimethamine, reference compound], the 50% effective concentration (EC50) in [1] (read-out: T. brucei EC50 (μM)) came out at 17.3 µM; in assay [1] (setting [12]), 2.08 µM; in assay [7] it was 99.2 µM. In [4], the affinity, expressed as Ki, was 11.8 µM.

In the case of `CC1(C)N=C(N)N=C(N)N1c1ccc(Cl)cc1` [Cyc, cycloguanil, reference compound], the 50% effective concentration (EC50) was over 80 µM in assay [1] (read-out: T. brucei EC50 (μM)), 27.2 µM in assay [1] (setting [12]), over 25 µM in [8] and over 80 µM in assay [7]. In assay [5], this compound had a Ki of 4.16 µM.

With `CN(Cc1cnc2nc(N)nc(N)c2n1)c1ccc(C(=O)N[C@@H](CCC(=O)O)C(=O)O)cc1` [MTX, methotrexate, reference compound], in [1] (T. brucei, 23.3 μM to 5.4 nM), the “EC50 enhancement in folate deficiency medium versus standard medium” value is listed as 4300 fold. Further, the concentration for a half-maximal effect (EC50) came out at 23.3 µM in assay [1] (read-out: T. brucei EC50 (μM)) and 0.0054 µM in [1] (setting [12]).

As for `N=C(N)Nc1nc2cc(Cl)c(Cl)cc2[nH]1` [2c, 5,6-Dichloro-2-guanidinobenzimidazole], the EC50 in assay [1] (read-out: T. brucei EC50 (μM)) came to 7.8 µM; in [1] (setting [12]), 6.52 µM; in [7], 22.5 µM. The Ki in assay [2] was 1.51 µM; in assay [3], 0.66 µM; in [9] it was 1.58 µM; in [4], over 500 µM; in assay [5], 3.23 µM; in [6], 50.3 µM.

Turning to `Cc1cc2nc(NC(=N)N)[nH]c2cc1C` [2g, 5,6-Dimethyl-2-guanidinobenzimidazole], the EC50 in [1] (read-out: T. brucei EC50 (μM)) was 14.5 µM; in assay [1] (setting [12]) it was 13.8 µM; in assay [7], over 20 µM. The inhibition constant Ki is 3.55 µM in assay [2]; 0.009 µM in assay [3]; 1.04 µM in assay [9]; over 500 µM in assay [4]; 0.6 µM in assay [10]; 54 µM in assay [5]. The compound further came in with an inhibition constant (Ki) in assay [6] of 18.2 µM. The “drop-off in potency TcDHFR versus TbDHFR” value in assay [10] (Ki TcDHFR versus Ki TbDHFR) is recorded as 67 fold.

On to `Cc1ccc2nc(N)[nH]c(=O)c2c1Sc1ccncc1` [nolatrexed], for which the EC50 in assay [11] was about 32 µM.
